The text below walks through data of patent publication US20260027096A1, “PHD INHIBITORS” (Oxford University Innovation Limited, priority 2023, published 2026).

Data set [1] concerns human multiple myeloma cell lines. Briefly: Apoptosis of multiple myeloma cell lines. Format: cell-based. The conditions noted are these: 50 μM, versus the control. As to the method:
Apoptosis of multiple human MM cell lines derived from different patients (AWO^WT, H292, KMS12, RPMI, U266 and MM.1S) treated with vehicle control, 50 μM Daprodustat (2). Data represent mean±SEM; * p<0.05; ** p<0.01, *** p<0.001.
Viable cells were counted by trypan blue exclusion at the indicated time points. To analyse cells undergoing apoptosis, cells were suspended in binding buffer containing PE-conjugated Annexin-V or FITC-conjugated Annexin-V, and either PI or DAPI.

Data set [2] can be described thus: Steady-state haematopoiesis analyses in C57B16 mice. The conditions noted are these: 30 mg/kg i.p. twice daily for 14 days. Format: in vivo, mouse. As to the method: For steady-state analyses, 8-to 10-week-old mixed gender C57B16 mice were injected intraperitoneally twice daily for 14 days with 30 mg/kg IOX5 or vehicle control. Mice were bled before and after treatment, and culled 12 hrs after the final dosing.
Given that Dap has been deemed safe in murine and human studies^37,72,78, the impact of IOX5 (68, example 46) on normal hematopoiesis was then examined.

Data set [3] has as its system Meis1/Hoxa9-transformed AML cells lacking both Hif1α and Hif2α and control cells. Briefly: Proliferation of control and Hif1α/Hif2α-deficient Meis1/Hoxa9 AML cells. Type of data set: cell-based, mouse. The conditions noted are these: 50 μM.
Text: To investigate whether HIF-α mediates the anti-leukaemic effects of PHD inhibition, Meis1/Hoxa9-transformed AML cells lacking both Hif1α and Hif2α and control cells were employed (Vukovic et al., 2015).
Data set [4] relates to OCI-AML3 cells in NBSGW recipient mice. The experiment in a line: OCI-AML3 xenotransplantation in NBSGW mice. Type of data set: in vivo, mouse. The conditions noted are these: i.p. twice daily for 21 days. The source says:
(A) 100,000 THP-1 cells were transplanted into NBSGW recipient mice. […] (B-C) Percentage of human CD45+CD33+ and human CD45+CD14+ cells in the BM and spleen, respectively (n=4-5). (D) 100,000 OCI-AML3 cells were transplanted into NBSGW recipient mice. […] (E) Percentage of human CD45+CD33+CD14+ cells in the liver, BM and PB, respectively (n=3-7). (F) 2,000 LSK cells from iMLL-AF9;Control mice were sorted and transplanted into irradiated recipient mice. […] (H) LDA in secondary recipients transplanted with indicated doses of CD45.2+BM cells from primary recipients (n=9-10 per dose). (I) Plot showing Poisson statistical analysis. Circles represent the percentages of negative mice for each cell dose, triangles represent any data values with zero negative responses. Solid lines indicate the best-fit linear model, and dotted lines represent 95% CIs. LSC frequencies were calculated using the ELDA software 121. (J) Steady-state analyses of 8-to 10-week-old C57B16 mice treated with IOX5 or vehicle control 2× daily via i.p. injection for 14 days (n=5-7). (K) PB counts (n=6). (L) Total BM cellularity (n=5-9). (M) Total numbers of HSC, MPP, HPC-1 and HPC-2 populations (n=5-7). Data represent mean±SEM; * p<0.05; ** p<0.01; *** p<0.001; **** p<0.0001. […]

Data set [5] relates to BNIP3 protein in THP-1 cells.
The test system of data set [6] is MV411 AML cells in NBSGW recipient mice. The experiment in a line: MV411 xenotransplantation in NBSGW mice, combination with Venetoclax. The conditions noted are these: 14 days treatment; IOX5 i.p. twice daily, Venetoclax o.g. once daily. Type of data set: in vivo, mouse. On the procedure:
14 days following transplantation, recipient mice were treated with IOX5 (68, example 46), Venetoclax or vehicle control. Dosing regimen consisted of 2× daily via i.p. injection (IOX5 (68, example 46) or vehicle) and/or 1× daily via o.g. (Venetoclax or vehicle). […] (E-G) Percentage of human CD45+CD33+CD14+ cells in the BM, spleen and liver, respectively (n=5). (H) Survival curve of mice treated with IOX5 (68, example 46), Venetoclax, IOX5 (68, example 46)+Venetoclax or vehicle control (n=6-7). (I-J) Proliferation and Annexin-V+DAPI+analyses, respectively, of THP-1 cells treated with Ven, IOX5, FIH inhibitor (FIHi; DM-NOFD), IOX5 (68, example 46)+FIHi, IOX5 (68, example 46)+Ven, FIHi+Ven, IOX5 (68, example 46)+FIHi+Ven or vehicle control (n=6). Statistical significance represented as in (A-B). Data represent mean±SEM; *p<0.05; ** p<0.01; *** p<0.001; **** p<0.0001.
100,000 THP-1 cells, 100,000 OCI-AM3 cells or 100,000 MV411 cells (for combination experiments) were tail vein injected into non-irradiated 10-to 12-week-old mixed gender NBSGW mice and began drug treatment 14 days after transplantation. […] Mice were culled 5 weeks after transplantation.
Mice in combination treatment experiments with Venetoclax (ABT-199) (MCE) were dosed once daily with 100 mg/kg via oral gavage (o.g.).
Further to findings in Example 170, the efficacy of IOX5 (68, example 46)+Venetoclax combination in vivo was investigated (FIG. 38D). MV411 AML cells were engrafted (with MLL-AF4 and FLT3-ITD mutation) and the recipient mice were treated with a vehicle, IOX5 (68, example 46), Venetoclax, and a combination of IOX5 (68, example 46)+Venetoclax.

Molecules are shown by their SMILES.

Consider `O=C(O)CNC(=O)c1c(O)n(C2CCCCC2)c(=O)n(C2CCCCC2)c1=O` [Daprodustat, daprodustat, reference compound], for which the apoptosis result in data set [1] is on record as “significant apoptosis”.

As for `O=C(NCC1CCC(C(F)(F)F)CC1)c1c[nH]c(-n2cccn2)cc1=O` (stereo not drawn) [IOX5], in data set [2], the HSPC compartment entry is recorded as “no significant defects in the HSPC compartment”; the “differentiated PB, BM or spleen compartments” value is given as “no detrimental impact on the differentiated PB, BM or spleen compartments”; the erythropoiesis result is listed as “enhanced erythropoiesis”. In data set [3], the “proliferation of control vs Hif1α/Hif2α-deficient cells” value is “control AML cells manifest substantially reduced proliferation, while Hif½αDKO cells are refractory”. For the same molecule, the leukaemic burden result in data set [4] was “significantly reduced leukaemic burden”. For the same molecule, the “BNIP3 protein (western blot)” value in data set [5] is “strongly upregulated BNIP3 protein”. In addition, in data set [6], the leukaemic burden result is reported as “decreased leukaemic burden” and the “survival of recipient mice” value was “extended survival of the recipient mice”.
